According to patent USRE46372E1, “Method for treating hearing loss” (The Regents of the University of Michigan, priority 2006, dated 2017):
Entries after “also recorded” stand apart in the source; their conditions may differ.

How the values were obtained:
guinea pigs [1] = assay: Noise-induced hearing loss in guinea pigs, ABR threshold shift; type: in vivo, guinea pig; settings: for permanent hearing loss 10 days post noise (FIG. 1), protection in words: Trolox 100 mg/kg once daily or 50 mg/kg twice daily, betahistine 30 mg/kg once daily or 18 mg/kg, versus saline control; for threshold shift, as averaged across all frequencies: ABR at 4, 8, 16 kHz, 10 days after 120 dB SPL Octave Band Noise centered at 4 kHz for 5 h, saline control about 45
[2] = in words; cited from earlier work
[3] = in words; cited from earlier work; remark: listed apart in the source
guinea pigs [4] = assay: Missing hair cells (hair cell counts, cytocochleograms) after noise exposure in guinea pigs; settings: after 120 dB SPL noise for 5 h, in words
Protocol: After ABR testing, the guinea pigs are deeply anesthetized and decapitated. Temporal bones are quickly removed, dissected open and fixed with 4% paraformaldehyde. The following day, an otic capsule, lateral wall, and tectorial membrane are removed, and a bony modiolus is carefully detached. Organ of Corti tissue, attached to the modiolus, is permeabilized with 0.3% Triton-X and incubated with rhodamine phalloidin diluted 1:100 in phosphate buffered saline (30 min). After washing the tissues, individual turns from the organ of Corti are dissected, mounted on microscope slides, and examined and photographed using a Leica DMRB epiflourescence microscope. Hair cell counts are conducted, and cytocochleograms are prepared as known in the art.
Guinea pigs are treated with other compositions in order to compare the efficacy of the composition of the present disclosure with the other compositions. […] The guinea pigs are subjected to the same ABR testing, and the components of the ear are dissected, as described above in the Example to provide information on threshold shift and hair cell loss.
Eight groups of guinea pigs (where the number of guinea pigs ranges from 5 guinea pigs to 10 guinea pigs per group) are respectively treated with other compositions to compare the efficacy of the “ACEMg” composition of the present disclosure with the other compositions. […] The eight groups of guinea pigs are exposed to the same ABR testing, and the components of the ear are dissected as previously described in the Example to provide information on threshold shift and outer hair cell loss.

guinea pigs [5] = assay: Gentamicin-induced hair cell loss in guinea pigs (quantitative sensory hair cell assessment); type: in vivo, guinea pig
Protocol: In addition, outer hair cell loss and inner hair cell loss is measured both in the whole cochlea and in a trauma region of the cochlea. After treatment according to the method of the present disclosure, outer hair cell loss in the whole cochlea is less than 10%, and inner hair cell loss in the whole cochlea is less than 5%. Outer cell hair loss in the trauma region is less than 20%, while inner hair cell loss in the trauma region is less than 10%. […] To obtain those results, the composition is orally administered to guinea pigs for 10 to 16 days prior to first administration of the antibiotic, and the composition and antibiotic are administered again each day for forty days. The guinea pigs are then euthanized and the hair cells counted. Conversely, when the antibiotic is administered for forty days without administering the composition described herein in conjunction with the antibiotic, outer hair cell loss approaches 80%, while inner hair cell loss is about 8%.
The method of treating side effects of antibiotic treatment with the composition of the present disclosure is again performed on guinea pigs (normal hearing, male, pigmented). Six guinea pigs are subject to antibiotic administration and treatment with the composition of the present disclosure. The guinea pigs were fed with a chow containing the composition including beta-carotene, vitamin C, vitamin E, and magnesium in the amounts shown in Table 3 for 10 days prior to administration of a first dosage of gentamicin antibiotic, and were fed the same chow every day for 41 days. […] Fourteen days following cessation of antibiotic treatment, the guinea pigs were euthanized, left cochleae harvested, and quantitative sensory hair cell assessments were performed. […]
Six guinea pigs are subject to antibiotic administration in the absence of treatment with the composition of the present disclosure. […] Fourteen days following cessation of antibiotic treatment, the guinea pigs were euthanized, left cochleae harvested, and quantitative sensory hair cell assessments were performed.

[6] = antibiotic administered without the composition

With Cc1c(C)c2c(c(C)c1O)CCC(C)(C(=O)O)O2 (stereo not drawn) the “permanent hearing loss 10 days post noise (FIG. 1), protection in words” value (guinea pigs [1]) was “less permanent hearing loss than control animals”.
In the case of Oc1ncnc2[nH]ncc12 [allopurinol], the reducing gentamicin-induced ototoxicity [2] is listed as “ineffective” and the “reducing noise-induced hearing loss” value [3] is listed as “effective”.
With CNCCc1ccccn1 [betahistine] the “permanent hearing loss 10 days post noise (FIG. 1), protection in words” value (guinea pigs [1]) was “approximately the same amount of protection as those treated with vitamin E; also recorded: does not exhibit an additive effect”.
In the case of CN(CC(=O)O)C(=N)N [creatine], the “sensory cell death by hair cell counts, whole cochlea and trauma region, compared to the saline control” value (guinea pigs [4]) is reported as “reduced sensory cell death” and the “threshold shift, as averaged across all frequencies” value (guinea pigs [1]) is reported as “about 34 decibels”.
For O=S(=O)([O-])[O-].[Mg+2] [magnesium, magnesium sulfate], the “sensory cell death by hair cell counts, whole cochlea and trauma region, compared to the saline control” value (guinea pigs [4]) was “reduced sensory cell death”, the “sensory cell death by hair cell counts, whole cochlea and trauma region, compared to the saline control” value (guinea pigs [4]; listed as Mg) was “significantly reduced sensory cell death” and the “threshold shift, as averaged across all frequencies” value (guinea pigs [1]) was “about 41 decibels”.
With gentamicin the “inner hair cell loss” value (guinea pigs [5]; [6]) was “about 8%”, the “outer hair cell loss” value (guinea pigs [5]; [6]) was ~80% and the “ototoxic effect on hair cells” value (guinea pigs [5]; gentamicin 140 mg/kg s.c. once a day for 16 days, no composition, in words) was “dramatic cell death of outer hair cells”.
